Data: patent US20140128357A1, “METHODS OF PRODUCING AND USING BRASSINOSTEROIDS TO PROMOTE GROWTH, REPAIR AND MAINTENANCE OF SKELETAL MUSCLE AND SKIN” (Rutgers University, priority 2010, published 2014)
Where two headings read alike, the source gives them in different places.

Columns and labels:
[1] = system: orchiectomized (ORX) Wistar rats; type: in vivo, rat; conditions: for Glans penis weight: listed as HB
Description: Protocol 3: Four-week-old sham-operated (sham, n=6) or orchiectomized (ORX, n=24) Wistar rats (Charles River Laboratories, MA) were subject to a 10-d Hershberger assay (surgically castrated peri-pubertal adult model) under the following experimental conditions: sham, ORX (vehicle), ORX (20 mg/kg HB orally), ORX (60 mg/kg HB orally), and ORX (0.4 mg/kg testosterone propionate subcutaneously, serving as a positive control for the assay). All procedures and measurements followed protocol 1, except no body composition measurements were taken. Limb grip strength was measured for control animals and animals receiving 60 mg/kg HB using a digital force gauge (Wagner Instruments model FDV5) by Product Safety Laboratories (Dayton, N.J.). After the rats were allowed to grip the screen with paws, the animals were quickly pulled until the paws released from the screen, and the required release force was recorded. Three trials on each animal were performed in triplicate, and significance was determined using Student's t test (p<0.05). In addition to the gastrocnemius muscle, androgen-sensitive tissues (ventral prostate, seminal vesicles, bulbocavernosus/levator ani muscle complex, glans penis, and Cowper's gland) were dissected out and weighed.
The muscle samples for histochemical analysis were taken from the middle section of the mixed-fiber gastrocnemius muscle of the castrated animals treated according to protocol 4 (described herein above) to allow for the observation of differences in fiber type distribution and cross-section area associated with ORX and HB treatments. Serial transverse cryosections (10 μm) were prepared from each muscle and were analyzed for myofibrillar adenosine triphosphatase (mATPase) histochemistry after alkaline (pH=9.5) preincubation. Fiber cross-section area and enzyme activity levels were determined from digitized images of the muscle cross-sections that were stored as gray-level pictures using ImageJ software (National Institutes of Health, Bethesda, Md.). […]

[2] = system: cutaneous wound in C57BL/6J mice; assay: Mouse cutaneous injury model of wound healing; type: in vivo
Description: Under volatile anesthesia (5% isoflurane to effect), the shoulder and back region of each animal was shaved. A sharp punch (ID 6 mm) over their lumbar spine was applied to remove the skin, including panniculus carnosus and adherent tissues. Test substances were administered topically (TOP), immediately following cutaneous injury, once daily for 10 consecutive days. […] Wounds were traced onto clear plastic sheets and were measured by use of an ImageJ program (rsbweb.nih.gov/ij/), online from the National Institutes of Health (NIH). ImageJ is a public domain, Java-based image processing program developed at the NIH. Time to wound closure was estimated by comparing the area of the wound undergoing treatment to the areas of the wound undergoing control treatments. The percent closure of the wound (%) was calculated, and wound half-closure time (the time at which 50% of the cutaneous wound is closed, CT50) was analyzed by linear regression using Graph-Prism (Graph Software USA). At the end of experiment (10 days after the induction of the wound), animals were euthanized by CO2 gas inhalation. Blood was collected by heart puncture. Wound tissue and muscle were collected for immunohistochemical analyses and wound healing factor assays. HB increased the percent of wound closure in vivo in a mouse model of wound closure (FIG. 13). […] Twenty seven six-week-old male C57BL/6J mice, obtained from the Jackson Laboratory (Bar Harbor, Me.), were housed in individual chambers in a room maintained at a constant temperature with 12 h light-dark cycle. Mice had free access to food and water. Mice were allowed to adapt to new conditions for seven days and handling the mice was performed daily during this time to reduce the stress of physical manipulation. Mice were randomized into groups (n=9) according to body weight one day prior to dosing. Under volatile anesthesia (5% isoflurane to effect), the shoulder and back region of each animal was shaved. A sharp punch (ID 6 mm) over lumbar spine was applied to remove the skin including panniculus carnosus and adherent tissues. […] Pharmacol. 77: 1117-1124, 2009) as a positive control) was administered topically, immediately following cutaneous injury, and then daily for 10 days. To investigate the kinetics of wound healing, wound size was photographed and measured every two days with ImageJ software (rsbweb.nih.gov/ij/). […] The percent closure of the wound (%) was calculated, and time at which 50% of the cutaneous wound was closed (CT50) was analyzed by linear regression. […] Wound sizes were photographed and measured every 2 days for 10 days. Wound closure (%) relative to day 1 was determined every 2 days, and CT50 was calculated by linear regression. […]

[3] = Cytotoxicity, MTT assay in 3T3 fibroblasts; type: cell-based, mouse; conditions: mouse
[4] = ORX rats, 20 mg/kg oral daily 10 d
[5] = ORX rats, 60 mg/kg oral daily 10 d
[6] = ORX rats, 60 mg/kg oral per day 10 days
[7] = 10 μg/mouse/day topically for 10 days

| Structure (SMILES) | increase in gastrocnemius muscle mass ([1]; ORX rats, 20 mg/kg oral 10 d) [%] | Bulbocavernosus/levator ani weight [1, 4] [mg] | Cowper's gland weight [1, 4] [mg] | Seminal vesicles weight [1, 4] [mg] | Ventral prostate weight [1, 4] [mg] | Glans penis weight ([1]; ORX rats, 20 mg/kg oral daily 10 d, 20 mg/kg) [mg] | increase in gastrocnemius muscle mass ([1]; ORX rats, 60 mg/kg oral 10 d) [%] | Bulbocavernosus/levator ani weight [1, 5] [mg] | Cowper's gland weight [1, 5] [mg] | Seminal vesicles weight [1, 5] [mg] | Ventral prostate weight [1, 5] [mg] | Glans penis weight ([1]; ORX rats, 60 mg/kg oral daily 10 d, 60 mg/kg) [mg] | Change in grip strength of lower extremities [1, 6] [kg] | change in grip strength for front limbs [1, 6] [kg] | increase in total number of type IIa and type IIb fibers ([1]; gastrocnemius, 20 or 60 mg/kg per day 10 d, independent of dose) | androgenic activity in the Hershberger assay ([1]; rat, in vivo) | CT50, time at which 50% of the cutaneous wound is closed [2, 7] [days] | cutaneous wound healing compared with vehicle [2, 7] | increase in speed of wound closure relative to control mice ([2]; 10 μg/mouse/day topically, percent of original wound size) [fold] | IC50 [3] [µM] |
| --- | --- | --- | --- | --- | --- | --- | --- | --- | --- | --- | --- | --- | --- | --- | --- | --- | --- | --- | --- | --- |
| CC[C@@H](C(C)C)[C@H](O)[C@@H](O)[C@@H](C)[C@H]1CC[C@H]2[C@@H]3COC(=O)[C@H]4C[C@H](O)[C@H](O)C[C@]4(C)[C@H]3CC[C@]12C [Compound 1, (22S,23S,24S)-2α,3α,22,23-tetrahydroxy-24 ethyl-β-homo-7-oxo-5α-cholestane-6-one] | 13.8 | 109.2 ± 8.6 | 11.2 ± 0.7 | 37.3 ± 3.5 | 26.0 ± 2.5 | 55.3 ± 1.7 | 10.3 | 137.7 ± 9.9 | 12.5 ± 1.1 | 34.7 ± 3.3 | 23.0 ± 2.4 | 59.6 ± 1.6 | 0.0851 ± 0.0197 | 0.2711 ± 0.0660 | approximately 60% | very low androgenic activity | 5.4 ± 0.3 | significantly improved | 2 |  |
| CC[C@@H](C(C)C)[C@H](O)[C@@H](O)[C@@H](C)[C@H]1CC[C@H]2[C@@H]3CC(=O)[C@H]4C[C@H](O)[C@H](O)C[C@]4(C)[C@H]3CC[C@]12C [Compound 2, (22S,23S,24S)-2α,3α, 22,23-tetrahydroxy-24-ethyl-5α-cholestan-6-one] |  |  |  |  |  |  |  |  |  |  |  |  |  |  |  |  |  |  |  | > 30 |
